In the supplement of paper PMC10307832:

Assays:
Assay in all cases: relative viability (nuclei count vs DMSO), 5 days (fraction); higher = more cells survive
[1] = compound: C1CNCCC1C2=CC(=NN2)C3=CC=NC=C3 + COc1cccc2cc(-c3nc([C@H]4CC[C@H](C(=O)O)CC4)n4ncnc(N)c34)[nH]c12 [OSI-027] (partner 0.5 µM)
Summary of the method: (§1)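 For relative viability, nuclei counts in treated wells were divided by those in vehicle wells. Lung cancer cell lines had been pin-tool dosed in 1536-well plates the day after seeding and cultured for 5 days, then fixed and stained in one step (final 0.05% Triton X-100, 1% formaldehyde, 1 ug/ml Hoechst) and imaged at 4×. Doses were one drug alone or a fixed anchor-drug dose plus five library-drug doses (not always all listed) in √10 steps, and values are duplicate-plate medians.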

[2] = compound: C1CNCCC1C2=CC(=NN2)C3=CC=NC=C3 + Nc1ncn([C@H]2C[C@H](O)[C@@H](CO)O2)c(=O)n1 [Decitabine] (partner 2 µM)
Summary of the method: as §1

[3] = compound: C[C@@H](N)c1ccc(C(=O)Nc2ccnc3[nH]ccc23)cc1 + CC1(C)CCC(c2ccc(Cl)cc2)=C(CN2CCN(c3ccc(C(=O)NS(=O)(=O)c4ccc(N[C@H](CCN5CCOCC5)CSc5ccccc5)c(S(=O)(=O)C(F)(F)F)c4)cc3)CC2)C1 [Navitoclax] (partner 0.5 µM)
Summary of the method: as §1

[4] = compound: C[C@@H](N)c1ccc(C(=O)Nc2ccnc3[nH]ccc23)cc1 + NC(=O)Nc1cc(-c2cccc(F)c2)sc1C(=O)N[C@H]1CCCNC1 [AZD7762] (partner 0.2 µM)
Summary of the method: as §1

Cell Line | relative viability ([1]; first compound 0.08 µM) | relative viability ([1]; first compound 0.8 µM) | relative viability ([1]; first compound 2.53 µM) | relative viability ([1]; first compound 8 µM) | relative viability ([2]; first compound 0.08 µM) | relative viability ([2]; first compound 0.8 µM) | relative viability ([2]; first compound 2.53 µM) | relative viability ([2]; first compound 8 µM) | relative viability ([3]; first compound 0.04 µM) | relative viability ([3]; first compound 0.1265 µM) | relative viability ([3]; first compound 0.4 µM) | relative viability ([3]; first compound 1.265 µM) | relative viability ([3]; first compound 4 µM) | relative viability ([4]; first compound 0.04 µM) | relative viability ([4]; first compound 0.1265 µM) | relative viability ([4]; first compound 0.4 µM) | relative viability ([4]; first compound 1.265 µM) | relative viability ([4]; first compound 4 µM)
NCI-H2347 | 0.494 | 0.291 | 0.442 | 0.487 | 0.63 | 0.621 | 0.658 | 0.567 | 0.806 | 0.86 | 0.846 | 0.89 | 0.752 | 0.825 | 0.603 | 0.973 | 0.878 | 1.01
201T | 0.72 | 0.718 | 0.832 | 0.842 | 0.835 | 0.857 | 0.846 | 0.866 | 1.15 | 1.1 | 1.16 | 1.2 | 1.37 | 0.644 | 0.678 | 0.668 | 1.01 | 0.783
PC-14 | 0.722 | 1.12 | 0.986 | 0.822 | 0.22 | 0.19 | 0.268 | 0.265 | 0.963 | 1.04 | 0.984 | 0.935 | 0.808 | 0.251 | 0.347 | 0.364 | 0.313 | 0.469
NCI-H727 | 0.613 | 0.579 | 0.816 | 0.815 | 0.872 | 0.865 | 0.871 | 0.952 | 0.524 | 0.579 | 0.676 | 0.484 | 0.411 | 1.04 | 0.801 | 0.788 | 0.996 | 0.833
NCI-H1792 | 0.74 | 0.766 | 0.706 | 0.749 | 0.553 | 0.398 | 0.551 | 0.514 | 0.668 | 0.592 | 0.644 | 0.415 | 0.567 | 0.564 | 0.534 | 0.69 | 0.72 | 0.578
ChaGo-K-1 | 0.559 | 0.557 | 0.589 | 0.575 | 0.496 | 0.525 | 0.506 | 0.529 | 1.07 | 1.01 | 1.19 | – | 0.891 | 0.832 | 0.862 | 0.978 | 0.838 | 0.816
HOP-62 | 0.816 | 0.912 | 0.831 | 0.773 | 0.226 | 0.234 | 0.205 | 0.201 | 1.08 | 0.959 | 1.06 | – | 0.85 | 0.534 | 0.471 | 0.746 | 0.685 | 0.402
NCI-H1915 | 0.643 | 0.641 | 0.623 | 0.646 | 0.267 | 0.249 | 0.26 | 0.263 | 0.755 | 0.792 | 0.817 | – | 0.723 | – | 0.785 | 0.697 | – | 0.691
BEN | 0.303 | 0.295 | 0.233 | 0.33 | 0.676 | 0.652 | 0.779 | 0.777 | 0.0518 | 0.0703 | 0.0684 | 0.0653 | 0.122 | 0.607 | 0.879 | 0.841 | 0.913 | 0.663
NCI-H1437 | 0.835 | 0.922 | 0.896 | 0.97 | 0.574 | 0.573 | 0.624 | 0.602 | 1.11 | 1.06 | 1.15 | 1.1 | 0.993 | 1.12 | 1.13 | 1.14 | 1.13 | 1.04
EMC-BAC-2 | 0.379 | 0.368 | 0.421 | 0.368 | – | 1.06 | 1 | 1.03 | 1.28 | 1.18 | 1.21 | 1.4 | 0.977 | 0.946 | 1.09 | 1.17 | 1.03 | 0.895
NCI-H647 | 0.631 | 0.68 | 0.66 | 0.589 | 0.296 | 0.378 | 0.338 | 0.392 | 0.978 | 1.19 | 0.942 | – | 0.762 | 0.397 | 0.423 | 0.517 | 0.392 | 0.439
LXF-289 | 0.847 | 0.829 | 0.901 | 0.728 | 0.349 | 0.35 | 0.395 | 0.371 | 1.01 | 0.915 | 1.02 | 1.07 | 0.876 | 1.07 | 1.09 | 1.23 | 1.26 | 0.934
LOU-NH91 | 0.696 | 0.74 | 0.796 | 0.727 | 0.84 | 0.851 | 0.832 | 0.79 | 0.61 | 0.679 | 0.602 | 0.615 | 0.615 | 0.622 | 0.782 | 0.751 | 0.628 | 0.518
NCI-H23 | 0.676 | 0.655 | 0.653 | 0.67 | 0.306 | – | 0.301 | 0.377 | 1.06 | 0.963 | 0.986 | – | 0.582 | 0.268 | 0.169 | 0.372 | – | 0.539
NCI-H1993 | 0.581 | 0.533 | 0.529 | 0.578 | 0.573 | 0.576 | 0.473 | 0.7 | 0.904 | 1.01 | – | 0.901 | 0.947 | 0.867 | 0.817 | – | 1.04 | 1.26

Cell Line | relative viability ([1]; first compound 0.08 µM) | relative viability ([1]; first compound 0.8 µM) | relative viability ([1]; first compound 2.53 µM) | relative viability ([1]; first compound 8 µM) | relative viability ([2]; first compound 0.08 µM) | relative viability ([2]; first compound 0.8 µM) | relative viability ([2]; first compound 2.53 µM) | relative viability ([2]; first compound 8 µM) | relative viability ([3]; first compound 0.04 µM) | relative viability ([3]; first compound 0.1265 µM) | relative viability ([3]; first compound 0.4 µM) | relative viability ([3]; first compound 1.265 µM) | relative viability ([3]; first compound 4 µM) | relative viability ([4]; first compound 0.04 µM) | relative viability ([4]; first compound 0.1265 µM) | relative viability ([4]; first compound 0.4 µM) | relative viability ([4]; first compound 1.265 µM) | relative viability ([4]; first compound 4 µM)
HCC-827 | 0.666 | 0.673 | 0.806 | 0.782 | 0.294 | 0.302 | 0.297 | 0.336 | 0.872 | 0.993 | 0.971 | 1.05 | 0.843 | – | 0.286 | 0.247 | 0.329 | 0.275
NCI-H838 | 0.385 | 0.423 | 0.394 | 0.491 | 0.431 | 0.441 | 0.46 | 0.451 | 1.08 | 1.1 | 0.84 | 0.714 | 0.524 | 0.848 | 0.957 | 0.936 | 0.852 | 0.752
RERF-LC-KJ | 0.537 | 0.521 | 0.581 | 0.576 | 0.692 | 0.689 | 0.766 | 0.668 | 0.962 | 0.99 | 1.42 | 1.1 | 0.95 | 1.08 | 1.04 | 1.33 | 1.08 | 1.18
HCC-366 | 1.12 | 1.01 | 1.05 | 0.878 | 0.266 | 0.353 | 0.373 | 0.366 | 1.04 | 1.15 | 1.16 | – | 0.923 | 0.174 | 0.32 | 0.434 | 0.588 | 0.359
HCC-44 | 0.47 | 0.71 | 0.627 | 0.787 | 0.957 | 0.989 | 0.961 | 0.942 | 0.979 | 0.99 | 1.15 | 0.946 | 0.698 | 1.07 | 1.01 | 1.09 | 1.26 | 1.09
A-427 | 0.463 | 0.477 | 0.473 | 0.499 | 0.557 | 0.603 | 0.578 | 0.498 | 1.02 | 0.992 | 0.993 | – | 0.855 | 0.708 | 0.751 | 0.779 | 0.806 | 0.665
NCI-H322M | 0.608 | 0.532 | 0.653 | 0.592 | 0.67 | 0.645 | 0.736 | 0.872 | 1.2 | 1.21 | 1.36 | – | 1.55 | 0.544 | 0.66 | 0.647 | 0.837 | 0.777
LK-2 | 0.264 | 0.284 | 0.223 | 0.209 | – | 0.237 | 0.404 | 0.358 | 0.976 | 1.18 | 0.927 | 0.82 | 0.762 | 0.493 | 0.385 | 0.603 | 0.434 | 0.621
NCI-H596 | 0.838 | 0.763 | 0.784 | 0.736 | 1.03 | 1.25 | 0.922 | 1.21 | 1.01 | 1.2 | 0.96 | 1.06 | 0.955 | 1.02 | 1.1 | 0.828 | 1.01 | 1.04
NCI-H1793 | 0.261 | 0.246 | 0.302 | 0.23 | 0.338 | – | 0.489 | 0.626 | 0.415 | 0.421 | 0.409 | – | 0.501 | 0.409 | 0.62 | 0.442 | – | 0.73
NCI-H2405 | 0.72 | 0.627 | 0.731 | 0.674 | 0.705 | 0.735 | 0.793 | 0.753 | – | 0.799 | 0.513 | 0.41 | 0.279 | – | 0.702 | 0.438 | 0.253 | 0.179
NCI-H460 | 0.496 | 0.833 | 0.775 | 0.676 | 0.379 | 0.608 | 0.554 | 0.474 | 1.16 | 1.08 | 1.22 | 1.14 | 0.825 | 0.66 | 0.656 | 0.844 | 0.873 | 0.913
NCI-H1755 | 0.738 | – | 0.754 | 0.69 | 0.712 | 0.717 | 0.692 | 0.641 | 1.04 | 0.985 | 0.962 | 0.933 | 0.622 | 0.408 | 0.46 | 0.451 | 0.362 | 0.397
NCI-H1734 | 0.543 | 0.616 | 0.674 | 0.653 | 0.452 | 0.524 | 0.488 | 0.497 | 0.943 | 0.82 | 0.81 | – | 0.443 | 0.461 | 0.526 | 0.575 | 0.414 | 0.57
EPLC-272H | 0.279 | 0.348 | 0.318 | 0.292 | 0.372 | 0.385 | 0.389 | 0.365 | 1.14 | 1.26 | 1.26 | – | 0.975 | 0.0944 | 0.216 | 0.18 | – | 0.439
NCI-H2126 | 0.724 | 0.591 | 0.725 | 0.698 | 0.613 | 0.654 | 0.667 | 0.578 | 0.885 | 0.824 | 0.908 | 0.885 | 0.816 | 1.01 | 1.04 | 1.17 | 0.982 | 1.12
